Experimental data from patent US20250243488A1, “METHODS OF MODULATING PROGRANULIN EXPRESSION USING ANTISENSE OLIGONUCLEOTIDES TARGETING REGULATORY RNAS” (Camp4 Therapeutics Corporation, priority 2022, published 2025).
Oligonucleotides are written 5' to 3', each unit as a sugar letter and its base; * is a phosphorothioate linkage, no mark a phosphodiester; rarer units and linkages stand in square brackets, end groups in braces. Plain capitals give the bases only. e = 2'-O-(2-methoxyethyl) (MOE); l = locked nucleic acid (LNA); [5mC] = 5-methylcytosine

Test system: GRN mRNA
Test: GRN mRNA qPCR in SK-N-AS cells transfected with ASOs
Assay type: cell-based, human
Settings: SK-N-AS; for hGRN mRNA FC / 120 nM FC (GRN mRNA): 120 nM; for hit identification (GRN mRNA dose escalation): 3.75 nM to 120 nM
How it was run: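 Fold change in GRN mRNA, by qPCR with GAPDH/PPIA housekeeping normalization, referenced to steric non-targeting control ASO(s) such as CO-1589. ASOs were transfected into SK-N-AS neuroblastoma cells in dose titrations (20 to 160 nM initially). Cells were harvested 48 hours post-transfection.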

[1] = Table 12, normalized to CO-1589
[2] = Table 9, 48 hours post-transfection, normalized to CO-1589
[3] = Table 10, 48 hours, normalized to CO-1589
[4] = Table 3, normalized to CO-3772 and CO-1589 (sNTC1)

Substance | 30 nM FC (GRN mRNA) [1] [FC] | 60 nM FC (GRN mRNA) [1] [FC] | 120 nM FC (GRN mRNA) [1] [FC] | hGRN mRNA FC [2] [FC] | other results
CO-6454: ASO designed to target an intragenic enhancer RNA (eRNA) (e[5mC]*e[5mC]*eA*eA*eG*eT*eG*eT*eA*eG*eG*eA*eA*eA*eA*eA*eG*eT*eT*eT) | – | – | – | – | hGRN mRNA FC (Table 11, 48 hours, normalized to CO-1589): 1.0 FC
CO-6411: ASO based on parent ASO CO-3462 (antisense eT*eA*eGeGeA*eG*eA*eA*eT*e[5mC]*eG*e[5mC]*eT*eT*eT*eGeGeG*eA*eG) | 1.1 | 1.4 | 1.8 | – | –
CO-4619: ASO designed to target intergenic enhancers (eRNA) (antisense eT*eG*eA*eT*eA*eT*eA*eG*eA*eG*eA*eT*e[5mC]*eT*eG*e[5mC]*eA*eG*e[5mC]*e[5mC]) | – | – | – | 1.3 | hit identification (GRN mRNA dose escalation) (48 hours): initial hits; 3.75 nM FC (GRN mRNA) [3]: 1.0 FC; 7.5 nM FC (GRN mRNA) [3]: 1.1 FC; 15 nM FC (GRN mRNA) [3]: 1.3 FC; 30 nM FC (GRN mRNA) [3]: 1.2 FC; 60 nM FC (GRN mRNA) [3]: 1.2 FC; 120 nM FC (GRN mRNA) [3]: 1.6 FC
CO-6512: ASO based on parent ASO CO-3462 (antisense eT*eA*eGeGeAeGeA*eA*eT*e[5mC]*eG*e[5mC]eT*eT*eT*eG*eG*eG*eA*eG) | 1.3 | 1.8 | 1.3 | – | –
CO-4637: ASO designed to target intergenic enhancers (eRNA) (antisense eT*eA*eA*eG*eG*eT*eG*eT*eA*eG*eG*eA*e[5mC]*eA*eG*eT*e[5mC]*eT*eG*eA) | – | – | – | 0.9 | hit identification (GRN mRNA dose escalation) (48 hours): initial hits; 3.75 nM FC (GRN mRNA) [3]: 1.1 FC; 7.5 nM FC (GRN mRNA) [3]: 1.1 FC; 15 nM FC (GRN mRNA) [3]: 1.2 FC; 30 nM FC (GRN mRNA) [3]: 1.1 FC; 60 nM FC (GRN mRNA) [3]: 1.2 FC; 120 nM FC (GRN mRNA) [3]: 1.3 FC
CO-4358: LNA/PS modified ASO based on CO-3423 (antisense eG*eG*eA*l[5mC]*eT*eT*eG*lG*eG*eA*eG*lT*eG*eG*eT*lG*eA*e[5mC]*eT*eG) | – | – | – | – | 30 nM FC (GRN mRNA) [4]: 1.5 FC; 60 nM FC (GRN mRNA) [4]: 1.9 FC; 120 nM FC (GRN mRNA) [4]: 2.0 FC
CO-6404: ASO based on parent ASO CO-3462 (antisense eG*eG*eT*eA*eG*eG*eA*eG*eA*eA*eT*e[5mC]*eG*e[5mC]*eT*eT*eT*eG*eG*eG*eA*eG*e[5mC]*eA) | 1.3 | 1.3 | 1.5 | – | –
CO-4645: ASO designed to target intergenic enhancers (eRNA) (antisense eA*e[5mC]*eA*eG*e[5mC]*eA*eG*eA*eA*e[5mC]*eA*eT*e[5mC]*e[5mC]*e[5mC]*eG*eT*eG*eA*eA) | – | – | – | 1.4 | –
CO-4625: ASO designed to target intergenic enhancers (eRNA) (antisense eT*e[5mC]*eT*eT*eG*eT*eT*eG*eT*eT*eG*eG*eA*eA*eA*eT*eT*e[5mC]*e[5mC]*e[5mC]) | – | – | – | 1.1 | –
CO-4641: ASO designed to target intergenic enhancers (eRNA) (antisense e[5mC]*eG*eT*eT*e[5mC]*e[5mC]*eA*eA*eA*e[5mC]*eA*eG*e[5mC]*eA*eG*e[5mC]*eG*eT*eT*eA) | – | – | – | 0.9 | –
CO-4628: ASO designed to target intergenic enhancers (eRNA) (antisense eT*e[5mC]*e[5mC]*eA*eT*eA*e[5mC]*eA*eA*e[5mC]*eT*eG*e[5mC]*eA*eG*eA*eG*eT*eG*eG) | – | – | – | 1.0 | –
CO-6523: ASO based on parent ASO CO-3462 (antisense eT*eA*eG*eG*eA*eG*eA*eA*eT*e[5mC]*eG*e[5mC]*eT*eTeTeGeGeG*eA*eG) | 2.9 | 1.4 | 1.3 | – | –
CO-4589: ASO designed to target intergenic enhancers (eRNA) (antisense e[5mC]*eG*e[5mC]*eA*eG*eG*e[5mC]*eT*eA*eG*eG*eA*eG*eT*eA*e[5mC]*e[5mC]*e[5mC]*eA*eT) | – | – | – | 1.1 | –
